Results published in US5593969A, “Lipid-A analogs: monosaccharide and dissaccharide compounds for inhibiting binding of lipid A receptors to lipid A receptors” (IGEN Incorporated, priority 1993, dated 1997).

Tests used:
Pseudomonas aeruginosa = format: in vivo, Pseudomonas aeruginosa in ICR mice; details: Lipid-A at 1 μg/mouse
[1] = Serum antibody titre on Lipid-A by ELISA after liposome immunization; format: in vivo, Balb/c mice; details: Lipid-A liposomes with HEL[105-120], HEL primed
Description: i) A stock solution of lipids for the formation of liposomes was prepared by mixing 10 mM solutions of dimyristoyl phosphatidyl choline, dicetyl phosphate and cholesterol (all from Sigma Chemicals) in the ratio 1.0:0.11:0.75. This stock was aliquotted into 1.0 ml volumes and dried under argon and stored at -20° C. until used.
ii) 500 μg of immunogen 3D dissolved in CHCl3 was dried into a 50 ml round bottomed flask on a rotary evaporator. One aliquot of the lipid stock was dissolved in 1 ml of CHCl3 :MeOH (9:1) and added to the dried immunogen 3D. The dissolved lipids were thoroughly mixed then dried together on a rotary evaporator under argon until all solvent had been removed and then for an additional 15 mins. The flask was then placed in a high vacuum dessicator for 2 hrs. 1.0 ml of swelling solution, approximately 0.9% NaCl, was added to the dry lipid film with 0.5 g of glass beads and mixed vigorously by swirling and vortexing. Liposomes were allowed to swell at room temperature overnight. […]
Mice which were primed with HEL and immunized with Immunogen 3D("Imm-3D") and Lipid-A incorporated separately into liposomes along with the peptide HEL[105-120] […] Seven days after the final immunization, serum samples were taken and the titres of IgG and IgM anti-Lipid-A antibodies determined separately by ELISA. […]

tumor cells = test: Antitumor activity (Meth A fibrosarcoma, melanoma or Pro b cells); format: in vivo; details: 250, 100 or 10 μg/mouse or up to 10 μg/kg, intravenously or intratumorly

For Lipid-A, the “protective activity against gram-negative bacteria” value (Pseudomonas aeruginosa) was “exhibits protective activity”, the “IgG antibody responses to the eliciting antigen” value [1] was “enhanced IgG antibody responses” and the tumor growth (tumor cells) was “retarded or prevented”.
